Laboratory results taken from the NIST ThermoML archive (doi:10.1016/j.fluid.2013.05.022).
± gives the expanded uncertainty stated by the source.

Key:
[1] = 298.15 K; 85.9 kPa; Liquid; Vibrating tube method
[2] = refractive index (Na D-line) (dimensionless); conditions: 298.15 K; 859 kPa; Liquid; Standard Abbe refractometry

mass density [1]: 944.53 ± 1 kg/m3
refractive index [2]: 1.4281 ± 0.0004
Structure (SMILES): CN(C)C=O [dimethylformamide]
